Laboratory results published in the RepoRT retention time repository (doi:10.1093/pcp/pcn183).
Where a name gives a salt, the structure may show the parent alone.

Assay: RP, Waters ACQUITY UPLC BEH C18, 38 °C, 0.24 mL/min; A: water + 0.1% formic acid, pH 3; B: acetonitrile + 0.1% formic acid, pH 3; gradient (min/%B) 0/0 0.25/0 0.4/9 0.8/17 1.9/100 2.1/100 2.11/0 3/0
Conditions: stereoisomer not certain

Row | SMILES | LC retention time [min]
1 | C[C@@H](O)[C@H](N)CC(=O)O [L-beta-homothreonine] | 0.19
2 | O=C(O)CCC(=O)O [Succinic acid] | 0.49
3 | CC(=O)OCC=C(C)CCC=C(C)CCC=C(C)C (mixture of isomers) [(cis,trans)-Farnesyl acetate] | 2
4 | NCC(N)C(=O)O (racemic) [DL-2,3-Diaminopropionic acid monohydrochloride] | 0.15
5 | NCCc1c[nH]c2ccccc12 [3-(2-Aminoethyl)indole Hydrochloride] | 1.22
6 | OCC1OC(OC2C(O)C(O)COC2(O)CO)C(O)C(O)C1O (stereo unspecified) | 0.18
7 | C[N+](C)(C)CCO [Choline chloride] | 0.17
8 | O=C(O)C1CCCCN1 (racemic) [DL-Pipecolinic acid] | 0.27
9 | CC(C)(CO)C(O)C(=O)NCCC(=O)O (stereo not drawn) [Calcium (+)-pantothenate] | 1.11
10 | O=C(O)Cc1ccc(O)c(O)c1 [3,4-dihydroxyphenylacetic acid] | 1.16
11 | NC(=O)NCCC[C@H](N)C(=O)O [L-Citrulline] | 0.18
12 | N[C@@H](Cc1c[nH]c2ccccc12)C(=O)O [L-Tryptophane] | 1.16
13 | O=C(O)c1ccco1 [2-Furoic acid] | 1.15
14 | CCCC[C@H](N)C(=O)O [L-Norleucine] | 0.57
15 | CC(=O)C(=O)O [Sodium Pyruvate] | 0.22
16 | CC(=O)NC1C(O)CC(O)(C(=O)O)OC1C(O)C(O)CO (stereo unspecified) [N-acetylneuraminic acid,Type IV-S,Synthetic] | 0.18
17 | O=C(O)[C@@H]1CCCN1 [L-Proline] | 0.19
18 | O=C(O)C(=O)Cc1ccccc1 [Sodium phenylpyruvate] | 1.36
19 | OCC1OC(OC2C(CO)OC(OC3C(CO)OC(O)C(O)C3O)C(O)C2O)C(O)C(O)C1O (stereo unspecified) [Maltotriose hydrate] | 0.22
20 | COc1cc(-c2[o+]c3cc(O)cc(O)c3cc2OC2OC(CO)C(O)C(O)C2O)cc(O)c1O (stereo not drawn) [Petunidin-3-O-beta-glucopyranoside] | 1.22
21 | C[N+](C)(C)CCOP(=O)(O)OP(=O)([O-])OCC1OC(n2ccc(N)nc2=O)C(O)C1O (stereo unspecified) | 0.2

Row | SMILES | LC retention time [min]
22 | CNC1(C)C2CCC(C2)C1(C)C (stereo unspecified) [Mecamylamine hydrochloride] | 1.35
23 | CNC(C)C(=O)O (racemic) [N-Methyl-DL-Alanine] | 0.18
24 | O=c1cc[nH]cc1 [4-Hydroxypyridine] | 0.25
25 | N[C@H](CC(=O)O)Cc1ccccc1 [L-beta-Homophenylalanine hydrochloride] | 1.16
26 | OCC1OC(OC2C(CO)OC(O)C(O)C2O)C(O)C(O)C1O [D-(+)- Maltose monohydrate] | 0.17
27 | N[C@H](CS)C(=O)O [D-Cysteine] | 0.15
28 | Nc1nc2c(ncn2C2OC(COP(=O)(O)O)C(O)C2O)c(=O)[nH]1 (stereo unspecified) [Guanosine-5'-monophosphate] | 0.44
29 | CS(=O)(=O)O [Methanesulfonic acid solution] | 0.17
30 | O=C(O)c1ccc(O)cc1 [4-Hydroxybenzoate] | 1.25
31 | NCCCCN [1,4-Diaminobutane] | 0.14
32 | Nc1ccn(C2OC3COP(=O)(O)OC3C2O)c(=O)n1 (stereo unspecified) [Cytidine-3',5'-cyclicmonophosphate] | 0.67
33 | NC(CCC(=O)NC(CS)C(=O)NCC(=O)O)C(=O)O [L-Glutathione (reduced form)] | 0.95
34 | N[C@H]1C(O)O[C@H](CO)[C@@H](O)[C@@H]1O (stereo partly drawn) [D-(+)-Glucosamine hydrochloride] | 0.15
35 | CC1OC(OCC2OC(Oc3cc4c(O)cc(O)cc4[o+]c3-c3cc(O)c(O)c(O)c3)C(O)C(O)C2O)C(O)C(O)C1O (stereo unspecified) | 1.15
36 | OCC1OC(OC2C(CO)OC(O)(CO)C2O)C(O)C(O)C1O (stereo unspecified) | 0.19
37 | Nc1nc2c(ncn2C2CC(O)C(COP(=O)(O)O)O2)c(=O)[nH]1 (stereo unspecified) [2'-deoxyguanosine 5'-monophosphate sodium salt hydrate] | 0.72
38 | CN=C(N)N [Methylguanidine hydrochloride] | 0.18
39 | CC(C)CCC(=O)O [4-methyl valeric acid] | 0.56
40 | O=c1[nH]c(=O)c2ncn(C3OC(COP(=O)(O)O)C(O)C3O)c2[nH]1 (stereo unspecified) | 0.48
41 | O=C(O)c1cc(O)ccc1O [2,5-dihydroxy benzoic acid] | 1.25
